In US7192924B2, “Corticotropin releasing factor 2 receptor agonists” (priority 2002, dated 2007):
Peptide text beside a SMILES is read from it.

Key:
CRF2R = target: T1, CRF2R (Homo sapiens, UniProt Q13324); experiment: CRF2R agonist activity (EC50, Emax), called comparative CRF binding; assay type: cell-based; conditions: read-out: CRF2R EC50
T1 sequence (Q13324 1-411): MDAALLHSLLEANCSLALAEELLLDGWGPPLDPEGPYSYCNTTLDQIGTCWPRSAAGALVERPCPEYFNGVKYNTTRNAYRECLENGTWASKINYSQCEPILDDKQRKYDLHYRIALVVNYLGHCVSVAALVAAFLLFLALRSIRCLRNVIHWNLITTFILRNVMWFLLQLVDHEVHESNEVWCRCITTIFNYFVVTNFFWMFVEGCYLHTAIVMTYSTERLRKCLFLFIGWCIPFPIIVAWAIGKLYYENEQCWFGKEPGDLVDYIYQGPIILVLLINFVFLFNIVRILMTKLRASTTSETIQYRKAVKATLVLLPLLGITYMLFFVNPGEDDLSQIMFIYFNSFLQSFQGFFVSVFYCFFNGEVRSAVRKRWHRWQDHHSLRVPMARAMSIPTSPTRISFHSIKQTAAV
Procedure, shortened: (§1)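 Single-subtype CRFR cells, peptide vs vehicle, cAMP via CRE-reporter or lysate assay; background from other CRFR type subtracted if present.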

CRF1R = target: T2, CRF1R (Homo sapiens, UniProt P34998); experiment: CRF1R agonist activity (EC50, Emax), called comparative CRF binding; assay type: cell-based; conditions: read-out: CRF1R EC50
T2 sequence (P34998 24-415): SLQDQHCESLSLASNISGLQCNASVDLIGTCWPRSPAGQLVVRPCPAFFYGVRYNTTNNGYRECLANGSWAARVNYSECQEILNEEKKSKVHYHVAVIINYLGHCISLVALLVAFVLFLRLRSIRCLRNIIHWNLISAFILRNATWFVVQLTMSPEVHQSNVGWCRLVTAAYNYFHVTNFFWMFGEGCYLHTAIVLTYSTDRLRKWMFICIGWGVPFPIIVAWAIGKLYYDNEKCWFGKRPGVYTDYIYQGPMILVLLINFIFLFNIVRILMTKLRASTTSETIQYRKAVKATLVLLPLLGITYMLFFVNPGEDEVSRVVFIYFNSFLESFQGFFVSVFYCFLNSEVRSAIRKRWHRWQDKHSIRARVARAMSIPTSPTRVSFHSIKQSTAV
Procedure, shortened: as §1

| SMILES | EC50 (CRF2R) [nM] | EC50 (CRF1R) [nM] |
| --- | --- | --- |
| CC[C@H](C)[C@H](N)C(=O)N[C@H](C(=O)N[C@@H](CC(C)C)C(=O)N[C@@H](CO)C(=O)N[C@@H](CC(C)C)C(=O)N[C@@H](CC(=O)O)C(=O)N[C@H](C(=O)N1CCC[C@H]1C(=O)N[C@H](C(=O)NCC(=O)N[C@@H](CC(C)C)C(=O)N[C@@H](CC(C)C)C(=O)N[C@@H](CCC(N)=O)C(=O)N[C@H](C(=O)N[C@@H](CC(C)C)C(=O)N[C@@H](CC(C)C)C(=O)N[C@@H](CCC(=O)O)C(=O)N[C@@H](CCSC)C(=O)N[C@@H](C)C(=O)N[C@@H](CCCNC(=N)N)C(=O)N[C@@H](C)C(=O)N[C@@H](CCC(=O)O)C(=O)N[C@@H](CCC(N)=O)C(=O)N[C@@H](CC(C)C)C(=O)N[C@@H](C)C(=O)N[C@@H](CCC(N)=O)C(=O)N[C@@H](CCC(N)=O)C(=O)N[C@@H](C)C(=O)N[C@@H](Cc1c[nH]cn1)C(=O)N[C@@H](CO)C(=O)N[C@@H](CC(N)=O)C(=O)N[C@@H](CCCNC(=N)N)C(=O)N[C@@H](CCCCN)C(=O)N[C@@H](CC(C)C)C(=O)N[C@@H](CCSC)C(=O)N[C@@H](CCC(=O)O)C(=O)N[C@H](C(=O)N[C@H](C(N)=O)[C@@H](C)CC)[C@@H](C)CC)[C@@H](C)CC)[C@@H](C)CC)C(C)C)C(C)C [compound 164] (H-IVLSLDVPIGLLQILLEMARAEQLAQQAHSNRKLMEII-NH2; N-terminus assumed) | 2.24 | > 100 |
| CC[C@H](C)[C@H](N)C(=O)N[C@H](C(=O)N[C@@H](CC(C)C)C(=O)N[C@@H](CO)C(=O)N[C@@H](CC(C)C)C(=O)N[C@@H](CC(=O)O)C(=O)N[C@H](C(=O)N1CCC[C@H]1C(=O)N[C@H](C(=O)NCC(=O)N[C@@H](CC(C)C)C(=O)N[C@@H](CC(C)C)C(=O)N[C@@H](CCC(N)=O)C(=O)N[C@H](C(=O)N[C@@H](CC(C)C)C(=O)N[C@@H](CC(C)C)C(=O)N[C@@H](CCC(=O)O)C(=O)N[C@@H](CCC(N)=O)C(=O)N[C@@H](CCC(=O)O)C(=O)N[C@@H](CCCCN)C(=O)N[C@@H](CCC(N)=O)C(=O)N[C@@H](CCC(=O)O)C(=O)N[C@@H](CCCCN)C(=O)N[C@@H](CCC(=O)O)C(=O)N[C@@H](CCCCN)C(=O)N[C@@H](CCC(N)=O)C(=O)N[C@@H](CCC(N)=O)C(=O)N[C@@H](C)C(=O)N[C@H](C(=O)N[C@H](C(=O)N[C@@H](CC(N)=O)C(=O)N[C@@H](C)C(=O)N[C@@H](CCCNC(=N)N)C(=O)N[C@H](C(=O)N[C@@H](CC(C)C)C(=O)N[C@@H](C)C(=O)N[C@@H](CCCNC(=N)N)C(=O)N[C@H](C(N)=O)C(C)C)[C@@H](C)CC)[C@@H](C)O)[C@@H](C)O)[C@@H](C)CC)[C@@H](C)CC)C(C)C)C(C)C [compound 167] (H-IVLSLDVPIGLLQILLEQEKQEKEKQQATTNARILARV-NH2; N-terminus assumed) | 13 | ≥ 1000 |
| CC[C@H](C)[C@H](NC(=O)[C@H](C)NC(=O)[C@H](CC(N)=O)NC(=O)[C@H](CCC(N)=O)NC(=O)[C@H](CCC(=O)O)NC(=O)[C@H](C)NC(=O)[C@H](CCCNC(=N)N)NC(=O)[C@H](CCC(=O)O)NC(=O)[C@H](CCCNC(=N)N)NC(=O)[C@H](CCC(N)=O)NC(=O)[C@H](CO)NC(=O)[C@H](CCC(N)=O)NC(=O)[C@@H](NC(=O)[C@H](CCCNC(=N)N)NC(=O)[C@H](C)NC(=O)[C@H](CC(C)C)NC(=O)[C@H](CCC(=O)O)NC(=O)[C@H](CC(C)C)NC(=O)[C@H](CC(C)C)NC(=O)[C@@H](NC(=O)[C@H](CCCNC(=N)N)NC(=O)[C@H](CC(C)C)NC(=O)[C@H](CC(C)C)NC(=O)[C@H](CC(C)C)NC(=O)[C@H](CC(C)C)NC(=O)[C@@H]1CCCN1C(=O)[C@H](CC(C)C)NC(=O)[C@H](CC(=O)O)NC(=O)[C@@H](NC(=O)[C@H](CO)NC(=O)[C@H](CC(C)C)NC(=O)[C@H](CO)NC(=O)[C@@H]1CCCN1C(=O)[C@H](CC(N)=O)NC(=O)[C@@H](N)CC(=O)O)[C@@H](C)CC)[C@@H](C)O)[C@@H](C)O)C(=O)N[C@H](C(=O)N[C@@H](Cc1ccccc1)C(=O)N[C@@H](C)C(=O)N[C@@H](CO)C(=O)N[C@H](C(N)=O)C(C)C)[C@@H](C)CC [compound 174] (H-DNPSLSIDLPLLLLRTLLELARTQSQRERAEQNAIIFASV-NH2; N-terminus assumed) | 4.42 | ≥ 1000 |
| CC[C@H](C)[C@H](NC(=O)[C@H](C)NC(=O)[C@H](CC(N)=O)NC(=O)[C@H](CCC(N)=O)NC(=O)[C@H](CCC(=O)O)NC(=O)[C@H](C)NC(=O)[C@H](CCCNC(=N)N)NC(=O)[C@H](CCC(=O)O)NC(=O)[C@H](CCCNC(=N)N)NC(=O)[C@H](CCC(N)=O)NC(=O)[C@H](CO)NC(=O)[C@H](CCC(N)=O)NC(=O)[C@@H](NC(=O)[C@H](CCCNC(=N)N)NC(=O)[C@H](C)NC(=O)[C@H](CC(C)C)NC(=O)[C@H](CCC(=O)O)NC(=O)[C@H](CC(C)C)NC(=O)[C@H](CC(C)C)NC(=O)[C@@H](NC(=O)[C@H](CCCNC(=N)N)NC(=O)[C@H](CC(C)C)NC(=O)[C@H](CC(C)C)NC(=O)[C@H](CCC(N)=O)NC(=O)[C@H](CC(C)C)NC(=O)[C@@H]1CCCN1C(=O)[C@H](CC(C)C)NC(=O)[C@H](CC(=O)O)NC(=O)[C@@H](NC(=O)[C@H](CO)NC(=O)[C@H](CC(C)C)NC(=O)[C@H](CO)NC(=O)[C@@H]1CCCN1C(=O)[C@H](CC(N)=O)NC(=O)[C@@H](N)CC(=O)O)[C@@H](C)CC)[C@@H](C)O)[C@@H](C)O)C(=O)N[C@H](C(=O)N[C@@H](Cc1ccccc1)C(=O)N[C@@H](C)C(=O)N[C@@H](CO)C(=O)N[C@H](C(N)=O)C(C)C)[C@@H](C)CC [compound 176] (H-DNPSLSIDLPLQLLRTLLELARTQSQRERAEQNAIIFASV-NH2; N-terminus assumed) | 12.6 | ≥ 1000 |
| CC[C@H](C)[C@H](NC(=O)[C@H](C)NC(=O)[C@H](CC(N)=O)NC(=O)[C@H](CCC(N)=O)NC(=O)[C@H](CCC(=O)O)NC(=O)[C@H](C)NC(=O)[C@H](CCCNC(=N)N)NC(=O)[C@H](CCC(=O)O)NC(=O)[C@H](CCCNC(=N)N)NC(=O)[C@H](CCC(N)=O)NC(=O)[C@H](CO)NC(=O)[C@H](CCC(N)=O)NC(=O)[C@@H](NC(=O)[C@H](CCCNC(=N)N)NC(=O)[C@H](C)NC(=O)[C@H](CC(C)C)NC(=O)[C@H](CCC(=O)O)NC(=O)[C@H](CC(C)C)NC(=O)[C@H](CC(C)C)NC(=O)[C@@H](NC(=O)[C@H](CCCNC(=N)N)NC(=O)[C@H](CC(C)C)NC(=O)[C@H](CC(C)C)NC(=O)[C@H](Cc1ccc(O)cc1)NC(=O)[C@H](CC(C)C)NC(=O)[C@@H]1CCCN1C(=O)[C@H](CC(C)C)NC(=O)[C@H](CC(=O)O)NC(=O)[C@@H](NC(=O)[C@H](CO)NC(=O)[C@H](CC(C)C)NC(=O)[C@H](CO)NC(=O)[C@@H]1CCCN1C(=O)[C@H](CC(N)=O)NC(=O)[C@@H](N)CC(=O)O)[C@@H](C)CC)[C@@H](C)O)[C@@H](C)O)C(=O)N[C@H](C(=O)N[C@@H](Cc1ccccc1)C(=O)N[C@@H](C)C(=O)N[C@@H](CO)C(=O)N[C@H](C(N)=O)C(C)C)[C@@H](C)CC [compound 177] (H-DNPSLSIDLPLYLLRTLLELARTQSQRERAEQNAIIFASV-NH2; N-terminus assumed) | 5.63 | 613 |
| CC[C@H](C)[C@H](NC(=O)[C@H](C)NC(=O)[C@H](CC(N)=O)NC(=O)[C@H](CCC(N)=O)NC(=O)[C@H](CCC(=O)O)NC(=O)[C@H](C)NC(=O)[C@H](CCCNC(=N)N)NC(=O)[C@H](CCC(=O)O)NC(=O)[C@H](CCCNC(=N)N)NC(=O)[C@H](CCC(N)=O)NC(=O)[C@H](CO)NC(=O)[C@H](CCC(N)=O)NC(=O)[C@@H](NC(=O)[C@H](CCCNC(=N)N)NC(=O)[C@H](C)NC(=O)[C@H](CC(C)C)NC(=O)[C@H](CCC(=O)O)NC(=O)[C@H](CC(C)C)NC(=O)[C@H](CC(C)C)NC(=O)[C@@H](NC(=O)[C@H](CCCNC(=N)N)NC(=O)[C@H](CC(C)C)NC(=O)[C@H](CC(C)C)NC(=O)[C@H](Cc1ccccc1)NC(=O)[C@H](CC(C)C)NC(=O)[C@@H]1CCCN1C(=O)[C@H](CC(C)C)NC(=O)[C@H](CC(=O)O)NC(=O)[C@@H](NC(=O)[C@H](CO)NC(=O)[C@H](CC(C)C)NC(=O)[C@H](CO)NC(=O)[C@@H]1CCCN1C(=O)[C@H](CC(N)=O)NC(=O)[C@@H](N)CC(=O)O)[C@@H](C)CC)[C@@H](C)O)[C@@H](C)O)C(=O)N[C@H](C(=O)N[C@@H](Cc1ccccc1)C(=O)N[C@@H](C)C(=O)N[C@@H](CO)C(=O)N[C@H](C(N)=O)C(C)C)[C@@H](C)CC [compound 178] (H-DNPSLSIDLPLFLLRTLLELARTQSQRERAEQNAIIFASV-NH2; N-terminus assumed) | 5.17 | ≥ 1000 |
